From patent publication US10689365B2, “Substituted 2-alkylimidazolylcarboxamides as pesticides” (Bayer CropScience Aktiengesellschaft, priority 2016, dated 2020)
Where two headings read alike, the source gives them in different places.

Tests used:
Myzus persicae [1] = assay: Myzus persicae - spray test (Chinese cabbage leaf discs); type: in vivo; conditions: Myzus persicae, foliar; application rate 500 g/ha, after 5-6 days; read-out: efficacy
Summary of the method: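 Chinese cabbage leaf discs carrying all aphid stages were sprayed with compound dissolved in acetone/dimethylformamide and diluted in water with 1000 ppm alkylaryl polyglycol ether emulsifier. Efficacy was recorded after 5-6 days as % aphids killed (100% = all, 0% = none).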

Myzus persicae [2] = assay: Myzus persicae - spray test (MYZUPE S), bell pepper plants; type: in vivo; conditions: 144 h, 6 dat, read-out: % efficacy
Description: Myzus persicae—Spray Test (MYZUPE S)
(§1) Solvent: 14 parts by weight of dimethylformamide
(§2) Emulsifier: alkylaryl polyglycol ether
(§3) To produce a suitable active compound preparation, 1 part by weight of active compound is dissolved with the specified parts by weight of solvent and made up with water containing an emulsifier concentration of 1000 ppm until the desired concentration is attained. To produce further test concentrations, the formulation is diluted with emulsifier-containing water. If the addition of ammonium salts or/and penetrants is required, these are each added in a concentration of 1000 ppm to the formulation solution.
Bell pepper plants (Capsicum annuum) severely infested with the green peach aphid (Myzus persicae) are treated by spraying with the active ingredient formulation in the desired concentration.
After the desired time, the kill in % is determined. 100% means that all the animals have been killed; 0% means that no animals have been killed.

[3] = log P by HPLC on reversed-phase (C18) columns, OECD Guideline 117; type: physicochemical; conditions: reversed-phase (C18) HPLC column
Summary of the method: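 Reversed-phase C18 HPLC per OECD 117, LC-MS with a linear 10% to 95% acetonitrile gradient. Acidic method at pH 2.7 with 0.1% formic acid; neutral method at pH 7.8 with 0.001 M ammonium hydrogencarbonate.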

Aphis gossypii = Aphis gossypii - spray test (APHIGO S), cotton plants; type: in vivo; conditions: 144 h, 6 dat, read-out: % efficacy
Description: Aphis gossypii—Spray Test (APHIGO S)
as §1, §2
as §3, with “dissolved using” for “dissolved with”, “the stated” for “the specified”
Cotton plants (Gossypium hirsutum) heavily infested by the cotton aphid (Aphis gossypii) are sprayed with an active ingredient formulation of the desired concentration.
After the desired time, the kill in % is determined. 100% means that all the aphids have been killed; 0% means that no aphids have been killed.

Myzus persicae [4] = assay: Myzus persicae - drench test (MYZUPE D), Savoy cabbage in soil; type: in vivo; conditions: 240 h, 10 dat, read-out: % efficacy
Description: Myzus persicae—Drench Test (MYZUPE D)
To produce a suitable active compound preparation, 1 part by weight of active compound is mixed with the specified amounts of solvent and emulsifier, and the concentrate is diluted with water to the desired concentration, it being necessary to include the volume of soil which is drenched in the calculation. It should be ensured that a concentration of 40 ppm of emulsifier in the soil is not exceeded. To produce further test concentrations, water is used for dilution.
Savoy cabbage (Brassica oleracea) in pots with soil and infested by all stages of the green peach aphid (Myzus persicae) is watered with an active compound preparation of the desired concentration.
(§4) After the desired period of time, the efficacy in % is determined. 100% means that all the aphids have been killed; 0% means that no aphids have been killed.

Myzus persicae [5] = assay: Myzus persicae - oral test (MYZUPE O); type: in vivo; conditions: 120 h, 5 dat, read-out: % efficacy
Description: Myzus persicae—Oral Test (MYZUPE O)
Solvent: 100 parts by weight of acetone
To produce a suitable preparation of active compound, 1 part by weight of active compound is dissolved using the specified parts by weight of solvent and made up with water until the desired concentration is attained.
50 μl of the active compound preparation are transferred into microtitre plates and made up to a final volume of 200 μl with 150 μl of IPL41 insect medium (33%+15% sugar). Subsequently, the plates are sealed with parafilm, which a mixed population of green peach aphids (Myzus persicae) within a second microtitre plate is able to puncture and imbibe the solution through it.
as §4

Myzus persicae [6] = assay: Myzus persicae - spray test (MYZUPE), Chinese cabbage leaf discs; type: in vivo; conditions: foliar, 120 h, 5 dat; for percent efficacy (aphid mortality) at 100 g/ha: 100 g of ai/ha
Description: Myzus persicae—Spray Test (MYZUPE)
Solvent: 78.0 parts by weight of acetone • • 1.5 parts by weight of dimethylformamide
as §2
To produce a suitable active compound preparation, 1 part by weight of active compound is dissolved using the stated parts by weight of solvent and made up with water containing an emulsifier concentration of 1000 ppm until the desired concentration is attained. To produce further test concentrations, the formulation is diluted with emulsifier-containing water.
Discs of Chinese cabbage leaves (Brassica pekinensis) infested by all stages of the green peach aphid (Myzus persicae) are sprayed with an active compound preparation of the desired concentration.
as §4

Myzus persicae [7] = assay: Myzus persicae - oral test; type: in vivo; conditions: Myzus persicae, po, 120 h; application rate 20 ppm, after 5 days; read-out: efficacy
Summary of the method: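 Aphid feeding test: compound dissolved in acetone, diluted with water and mixed with IPL41 insect medium plus sugar, offered through parafilm to a mixed population of green peach aphids. Mortality scored after 5 days as % efficacy (100% = all aphids dead, 0% = none dead).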

[8] = acidic range, pH 2.7, 0.1% aqueous formic acid/acetonitrile, read-out: logP[a]
[9] = neutral range, pH 7.8, aqueous ammonium hydrogencarbonate/acetonitrile, read-out: logP[n]

## CCN(C(=O)c1cnc(CSCC(C)C)n1C)c1cccnc1 [Example I-1-51]
Myzus persicae [1]
  pest or weed control at 500 g/ha: 100%
Myzus persicae [2]
  Emax at 0.16 ppm: 99%
[3]; [8]
  chromatographic logP: 1.32
[3]; [9]
  chromatographic logP: 2.05
Aphis gossypii; 0.8 ppm
  Emax at 0.8 ppm: 99%
Aphis gossypii; 4 ppm
  Emax at 4 ppm: 99%
Myzus persicae [4]
  Emax at 0.16 ppm: 98%
Myzus persicae [5]
  Emax at 4 ppm: 100%
Myzus persicae [6]; 20 g of ai/ha
  percent efficacy (aphid mortality) at 20 g/ha: 90%
Myzus persicae [6]
  percent efficacy (aphid mortality) at 100 g/ha: 90%
Myzus persicae [7]
  pest or weed control at 20 ppm: 100%

## CCN(C(=O)c1cnc(CSC(C)(C)C)n1C)c1cccnc1 [Example I-1-52]
Myzus persicae [1]
  pest or weed control at 500 g/ha: 90%
Myzus persicae [2]
  Emax at 0.16 ppm: 99%
[3]; [8]
  chromatographic logP: 1.29
[3]; [9]
  chromatographic logP: 1.93
Aphis gossypii; 4 ppm
  percent kill (mortality) of aphids at a fixed dose at 4 ppm: 90%
Myzus persicae [4]
  Emax at 0.16 ppm: 95%
Myzus persicae [5]
  Emax at 4 ppm: 100%
Myzus persicae [6]; 20 g of ai/ha, read-out: % efficacy
  Emax at 20 g/ha: 70%
Myzus persicae [6]
  percent efficacy (aphid mortality) at 100 g/ha: 90%
Myzus persicae [7]
  pest or weed control at 20 ppm: 100%

## CC(C)CS(=O)(=O)Cc1ncc(C(=O)N(C)c2cccnc2)n1C [Example I-1-32]
Myzus persicae [1]
  pest or weed control at 500 g/ha: 90%
Myzus persicae [2]
  Emax at 0.16 ppm: 98%
[3]; [8]
  chromatographic logP: 1.05
[3]; [9]
  chromatographic logP: 1.26
Aphis gossypii; 0.8 ppm
  Emax at 0.8 ppm: 98%
Aphis gossypii; 4 ppm
  Emax at 4 ppm: 97%
Myzus persicae [4]
  Emax at 0.16 ppm: 98%
Myzus persicae [5]
  Emax at 4 ppm: 100%
Myzus persicae [6]
  percent efficacy (aphid mortality) at 100 g/ha: 70%
Myzus persicae [7]
  pest or weed control at 20 ppm: 100%

## CCN(C(=O)c1cnc(CSCC(C)(C)C)n1C)c1cccnc1 [Example I-1-54]
Myzus persicae [1]
  pest or weed control at 500 g/ha: 90%
Myzus persicae [2]
  Emax at 0.16 ppm: 99%
[3]; [8]
  chromatographic logP: 1.68
[3]; [9]
  chromatographic logP: 2.34
Aphis gossypii; 0.8 ppm
  percent kill (mortality) of aphids at a fixed dose at 0.8 ppm: 90%
Aphis gossypii; 4 ppm
  Emax at 4 ppm: 95%
Myzus persicae [4]
  Emax at 0.16 ppm: 90%
Myzus persicae [5]
  Emax at 4 ppm: 100%
Myzus persicae [6]; 20 g of ai/ha
  percent efficacy (aphid mortality) at 20 g/ha: 90%
Myzus persicae [6]
  percent efficacy (aphid mortality) at 100 g/ha: 90%
Myzus persicae [7]
  pest or weed control at 20 ppm: 100%
